Test results: patent publication US8389535B2, “L-methylfolate treatment for psychiatric or neurologic disorders” (priority 2010, dated 2013)

Legend:
[1] = test system: patients with an autism spectrum disorder or an attention deficit disorder
Procedure: The patient is dosed with L-methylfolate orally once a day according to preparations available. The patient takes the medication at the same time of day and with a snack or meal. The patient is initially dosed with L-methylfolate according to weight as follows: • 25-45 lbs (11-20 kg): 2.5 mg • 46-60 lbs (21-27 kg): 5 mg • 61-90 lbs (28-41 kg): 7.5 mg • 91+ lbs (42+kg): 7.5-15 mg Dose Modifications and Duration of Therapy
L-methylfolate is administered in doses and forms appropriate for age. L-methylfolate is titrated upward as indicated by behavior improvement according to the results from the screens. Titration may occur from week 1 through 30 days as indicated by the physician. From 30 days to 90 days, the achieved dose at 30 days is maintained until 90 days to observe for tolerance to drug, side effects. During this time, if the child is not weaned from stimulant medications, attempts are made to lower the stimulant as tolerated and discontinue stimulants if at all possible.
In implementing therapy the first consideration is the presence of clinical signs consistent with previous or current diagnosis of an autism spectrum disorder or an attention deficit disorder. […] The established diagnosis was not a sole indicator for therapy.
Second, a review of the family history is necessary. […] Parents were questioned about the presence of ADHD or autism spectrum disorders in the immediate family or extended family. Of particular interest was the presence of other neuropsychiatric conditions, such as depression, anxiety, and bipolar disorder. Parents also were queried regarding the presence of heart disease, difficulties with pregnancy due infertility or miscarriages, leukemia, gastric and colon cancers, breast cancer and stroke. In elderly members of the family, the occurrence of dementia, Alzheimer's, and Parkinson's was also discussed. The above diseases have also been associated to varying degrees with the methylenetetrahydrofolate reductase defect.
Third, blood samples were collected and evaluated. The laboratory exams completed on the blood samples were: a complete blood count with differential, serum folate, serum B12, and serum homocysteine. The tests were performed to establish a baseline for red cell morphology while evaluating for any pre-existing pathologies related to anemia, leukemia, or other blood dycrasias. Serum folate and B12 have been implicated in certain pathologies of the red blood cell and are critical components in folate metabolism. Vitamin B12 in the range of 400 pg/ml or less has been associated with neuropsychiatric sequelae in 5-10% of population. (Quest Labs) Finally, elevated homocysteine levels in the serum have been associated with various disease states, particularly in the presence of the methylenetetrahydrofolate reductase gene polymorphisms. […] However, a few researchers have been able to evaluate severely compromised children.
Fourth, serum was evaluated for the presence of methylenetetrahydrofolate reductase polymorphisms as a predictor of condition severity and response to therapy. Given the expense of these analyses, it was decided to delay evaluation of the serum for the polymorphisms until a clinic response was determined.
In a preliminary trial, nineteen patients, ages 4-43 years, (3 female, 16 male) were randomly selected over the course of three months. Patients were permitted to remain on current medication or supplemental, i.e., fish oil and vitamins, therapies at parental request.

[2] = cited from earlier work
CP-450 system = conditions: cited from earlier work
[3] = via the kidneys; cited from earlier work
[4] = as a medical food or other suitable formulation; cited from earlier work
[5] = of the 14 patients, parental report

Structure (SMILES)	response to therapy as indicated by parents' correspondence and office visits ([1]; 14 remaining of 19 patients, ages 4-43 years, oral once daily, dose by weight 2.5-15 mg, more stable mood, increased attentiveness, improved sleep hygiene)	patients with intermediate responses [1, 5]	patients with significant improvements [1, 5]	side effects ([1]; preliminary experience)	time course of initial improvement ([1]; preliminary trial)	clinical response in patients negative for MTHFR gene polymorphisms ([1]; two children, parental reports)	response in patients positive for MTHFR gene polymorphisms ([1]; two of four patients with MTHFR analyses)	allergic reactions ([2]; oral use)	effect on CP-450 system (CP-450 system)	excretion [3]	blood brain barrier crossing [4]	side effect, anecdotal report ([2]; one patient, dose increased to 1 mg/kg/d)
CN1c2c(nc(N)[nH]c2=O)NC[C@@H]1CNc1ccc(C(=O)N[C@@H](CCC(=O)O)C(=O)O)cc1 [L-methylfolate, 6(S)-5-methyltetrahydrofolate]	all have had a response to therapy	two	12	No side effects have been reported	3-5 days, two weeks, or 4-6 weeks	responding clinically	positive response to therapy	Allergic reactions have been documented	does not affect CP-450 system	rapidly excreted via the kidneys	crosses the blood brain barrier	
Nc1nc(=O)c2c([nH]1)NCC(CNc1ccc(C(=O)N[C@@H](CCC(=O)O)C(=O)O)cc1)N2C=O (mixture of isomers) [folinic acid]												worsening of behavior symptoms
